Activity calls are given as the source filed them. The calls are words filed in the database; no cut-off is given here.

The target in one assay is T1, P2Y purinoceptor 14 (Homo sapiens, UniProt Q15391).
T1 sequence (Q15391 whole entry): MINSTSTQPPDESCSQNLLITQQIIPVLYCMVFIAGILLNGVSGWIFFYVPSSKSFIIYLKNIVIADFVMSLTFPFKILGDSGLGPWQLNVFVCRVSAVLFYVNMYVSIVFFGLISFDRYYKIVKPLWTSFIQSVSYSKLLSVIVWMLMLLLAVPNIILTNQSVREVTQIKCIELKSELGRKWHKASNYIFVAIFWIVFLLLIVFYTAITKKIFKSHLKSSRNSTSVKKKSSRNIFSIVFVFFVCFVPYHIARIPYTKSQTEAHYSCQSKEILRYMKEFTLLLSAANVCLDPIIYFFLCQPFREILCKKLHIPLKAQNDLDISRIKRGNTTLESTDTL
The assay can be described thus: Agonist activity at recombinant human P2Y14 receptor expressed in African green monkey COS7 cells co-transfected with Galphaqi assessed as stimulation of phospholipase Cbeta. It counts as cell-based, COS-7.
Settings: not given
Turning to `O=c1ccn([C@@H]2O[C@H](COP(=O)(O)OP(=O)(O)O[C@H]3O[C@H](CO)[C@@H](O)[C@H](O)[C@H]3O)[C@@H](O)[C@H]2O)c(=S)[nH]1`, the EC50 (in general, the concentration needed to bring the measured effect to its halfway point) came to 11 nM.

Another assay addresses T2, P2Y purinoceptor 14 (Homo sapiens) (UniProt Q15391).
T2 sequence (whole entry): T1 sequence (Q15391 whole entry)
Put plainly: Agonist activity at recombinant human P2Y14 receptor expressed in African green monkey COS7 cells co-transfected with Galphaqi assessed as stimulation of phospholipase Cbeta at 10 uM. The following applies: COS-7. Format: cell-based.
On to `[N-]=[N+]=Nc1cn([C@@H]2O[C@H](COP(=O)(O)OP(=O)(O)O[C@H]3O[C@H](CO)[C@@H](O)[C@H](O)[C@H]3O)[C@@H](O)[C@H]2O)c(=O)[nH]c1=O`, for which the result was inactive. On the same count and under the same terms, in the case of `O=c1ccn([C@]23C[C@H]2[C@H](COP(=O)(O)OP(=O)(O)O[C@H]2O[C@H](CO)[C@@H](O)[C@H](O)[C@H]2O)[C@@H](O)[C@H]3O)c(=O)[nH]1` it was “inactive”; in that of `[N-]=[N+]=N[C@@H]1[C@H](O)[C@@H](COP(=O)(O)OP(=O)(O)O[C@H]2O[C@H](CO)[C@@H](O)[C@H](O)[C@H]2O)O[C@H]1n1ccc(=O)[nH]c1=O`, “inactive”; in that of `N[C@@H]1[C@H](O)[C@@H](COP(=O)(O)OP(=O)(O)O[C@H]2O[C@H](CO)[C@@H](O)[C@H](O)[C@H]2O)O[C@H]1n1ccc(=O)[nH]c1=O`, “inactive”. With `Nc1cn([C@@H]2O[C@H](COP(=O)(O)OP(=O)(O)O[C@H]3O[C@H](CO)[C@@H](O)[C@H](O)[C@H]3O)[C@@H](O)[C@H]2O)c(=O)[nH]c1=O`, the result was inactive. Same read-out and setting: the value for `O=c1ccn([C@H]2[C@H](O)[C@H](O)[C@]3(COP(=O)(O)OP(=O)(O)O[C@H]4O[C@H](CO)[C@@H](O)[C@H](O)[C@H]4O)C[C@H]23)c(=O)[nH]1` was “inactive”; that for `O=c1[nH]c(=O)n([C@@H]2O[C@H](COP(=O)(O)OP(=O)(O)O[C@H]3O[C@H](CO)[C@@H](O)[C@H](O)[C@H]3O)[C@@H](O)[C@H]2O)cc1I` was “inactive”.
